{"source": "patent US20260297085A1", "about": "“1 H-PYRROLO[2,3-B]PYRIDIN-4-YL]-2-OXOPYRROLIDINE-3-CARBONITRILE DERIVATIVES AS TYROSINE KINASE 2 (TYK2) INHIBITORS FOR THE TREATMENT OF INFLAMMATORY DISEASES” (BIOGEN MA INC., priority 2023, published 2026)", "key": {"[1]": {"target": "T1, human JAK3 kinase domain (JH1) (Homo sapiens, UniProt P52333)", "T1 construct": "recombinantly generated catalytic kinase (also known as JH1) domain of human JAK1, JAK2, JAK3 and TYK2", "T1 sequence (P52333 822-1111 limits assumed)": "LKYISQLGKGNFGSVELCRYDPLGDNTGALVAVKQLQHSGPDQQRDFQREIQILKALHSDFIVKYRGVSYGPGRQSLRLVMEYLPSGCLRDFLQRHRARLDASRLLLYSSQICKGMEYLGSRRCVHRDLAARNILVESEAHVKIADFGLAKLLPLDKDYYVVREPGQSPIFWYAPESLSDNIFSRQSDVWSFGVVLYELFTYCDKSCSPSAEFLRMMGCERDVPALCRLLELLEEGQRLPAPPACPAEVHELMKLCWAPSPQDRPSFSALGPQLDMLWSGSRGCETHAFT", "experiment": "JH1 biochemical assay for JAK3 (ADP-Glo kinase assay, recombinant JH1 catalytic domain, JAK3-974 peptide, 4 μM ATP)", "how_it_was_run": "(§1)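 Reactions ran 100 min with 50 μM substrate peptide (JAK3-342 for JAK1 at 4 nM enzyme; JAK3-974 for JAK2 0.2 nM, JAK3 0.3 nM, TYK2 2 nM), and ADP formed was read by ADP-Glo luminescence. Eleven-point 3-fold series from 10 or 1 μM; IC50 fitted by 4-parameter logistic model.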"}, "[2]": {"target": "T2, human JAK1 kinase domain (JH1) (Homo sapiens, UniProt P23458)", "T2 construct": "recombinantly generated catalytic kinase (also known as JH1) domain of human JAK1, JAK2, JAK3 and TYK2", "T2 sequence (P23458 875-1153 limits assumed)": "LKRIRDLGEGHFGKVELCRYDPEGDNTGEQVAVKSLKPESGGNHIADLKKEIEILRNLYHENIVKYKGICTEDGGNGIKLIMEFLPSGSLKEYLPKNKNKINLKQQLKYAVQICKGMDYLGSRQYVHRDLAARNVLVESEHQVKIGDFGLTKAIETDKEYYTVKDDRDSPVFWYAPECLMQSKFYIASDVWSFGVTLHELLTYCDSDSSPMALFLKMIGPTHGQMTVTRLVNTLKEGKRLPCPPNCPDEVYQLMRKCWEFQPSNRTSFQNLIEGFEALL", "experiment": "JH1 biochemical assay for JAK1 (ADP-Glo kinase assay, recombinant JH1 catalytic domain, JAK3-342 peptide, 35 μM ATP)", "how_it_was_run": "as §1"}, "[3]": {"target": "T3, human JAK2 kinase domain (JH1) (Homo sapiens, UniProt O60674)", "T3 construct": "recombinantly generated catalytic kinase (also known as JH1) domain of human JAK1, JAK2, JAK3 and TYK2", "T3 sequence (O60674 849-1124 limits assumed)": "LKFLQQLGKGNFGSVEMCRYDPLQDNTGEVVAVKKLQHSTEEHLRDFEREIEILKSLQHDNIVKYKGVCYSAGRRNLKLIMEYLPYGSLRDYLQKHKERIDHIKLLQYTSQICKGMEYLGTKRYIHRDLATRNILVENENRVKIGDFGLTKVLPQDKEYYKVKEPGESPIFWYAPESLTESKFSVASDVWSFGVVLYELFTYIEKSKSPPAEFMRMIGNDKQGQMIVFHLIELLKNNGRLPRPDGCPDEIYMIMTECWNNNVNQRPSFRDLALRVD", "experiment": "JH1 biochemical assay for JAK2 (ADP-Glo kinase assay, recombinant JH1 catalytic domain, JAK3-974 peptide, 15 μM ATP)", "how_it_was_run": "as §1"}, "[4]": {"target": "JAK1 kinase activity on STAT3 in TF1 cells (Homo sapiens, UniProt P23458)", "sequence (P23458 whole entry)": "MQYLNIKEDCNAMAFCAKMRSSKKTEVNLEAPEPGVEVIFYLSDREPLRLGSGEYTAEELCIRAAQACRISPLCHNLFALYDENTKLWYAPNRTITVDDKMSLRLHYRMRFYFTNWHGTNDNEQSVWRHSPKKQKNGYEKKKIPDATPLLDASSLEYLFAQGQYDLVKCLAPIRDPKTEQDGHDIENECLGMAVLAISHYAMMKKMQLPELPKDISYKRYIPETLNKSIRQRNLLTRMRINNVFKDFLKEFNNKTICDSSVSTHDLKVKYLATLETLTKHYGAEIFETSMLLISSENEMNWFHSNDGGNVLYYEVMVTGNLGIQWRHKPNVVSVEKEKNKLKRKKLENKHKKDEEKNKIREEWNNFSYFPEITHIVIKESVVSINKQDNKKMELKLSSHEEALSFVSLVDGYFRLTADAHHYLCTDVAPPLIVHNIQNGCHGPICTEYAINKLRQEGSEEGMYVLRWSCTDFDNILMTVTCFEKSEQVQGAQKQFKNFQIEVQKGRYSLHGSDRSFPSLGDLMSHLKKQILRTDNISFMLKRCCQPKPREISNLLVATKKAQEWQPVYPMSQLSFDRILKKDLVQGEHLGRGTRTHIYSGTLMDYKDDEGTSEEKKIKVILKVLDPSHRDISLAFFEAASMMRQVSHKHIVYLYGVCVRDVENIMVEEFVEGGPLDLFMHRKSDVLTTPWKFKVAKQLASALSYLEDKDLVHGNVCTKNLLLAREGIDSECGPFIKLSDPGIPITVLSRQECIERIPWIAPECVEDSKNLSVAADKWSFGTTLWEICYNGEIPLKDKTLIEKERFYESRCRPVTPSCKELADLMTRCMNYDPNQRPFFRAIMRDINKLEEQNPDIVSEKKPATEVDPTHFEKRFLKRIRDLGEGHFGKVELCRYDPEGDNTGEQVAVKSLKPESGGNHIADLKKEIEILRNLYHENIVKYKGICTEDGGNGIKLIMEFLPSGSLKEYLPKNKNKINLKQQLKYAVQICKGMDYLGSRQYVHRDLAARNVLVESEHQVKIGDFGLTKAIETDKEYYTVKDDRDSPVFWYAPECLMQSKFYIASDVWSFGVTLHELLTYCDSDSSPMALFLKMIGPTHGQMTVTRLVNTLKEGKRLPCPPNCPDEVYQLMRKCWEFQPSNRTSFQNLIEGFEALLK", "experiment": "pSTAT3 cell assay (MSD; TF1 cells, 30 ng/mL IL-6 stimulation)", "assay_type": "cell-based", "settings": "30 ng/mL IL-6, 15 minutes", "how_it_was_run": "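Serum-starved TF1 cells were pretreated with compound for 1 hour (10-point, four-fold dilutions from 10 μM), then stimulated with IL-6 for 15 minutes. Lysates were assayed for pSTAT3 by MSD with anti-STAT3 antibodies; IC50 came from a 4-parameter logistic fit of normalized percent activity.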"}, "[5]": {"target": "T4, human TYK2 kinase domain (JH1) (Homo sapiens, UniProt P29597)", "T4 construct": "recombinantly generated catalytic kinase (also known as JH1) domain of human JAK1, JAK2, JAK3 and TYK2", "T4 sequence (P29597 897-1176 limits assumed)": "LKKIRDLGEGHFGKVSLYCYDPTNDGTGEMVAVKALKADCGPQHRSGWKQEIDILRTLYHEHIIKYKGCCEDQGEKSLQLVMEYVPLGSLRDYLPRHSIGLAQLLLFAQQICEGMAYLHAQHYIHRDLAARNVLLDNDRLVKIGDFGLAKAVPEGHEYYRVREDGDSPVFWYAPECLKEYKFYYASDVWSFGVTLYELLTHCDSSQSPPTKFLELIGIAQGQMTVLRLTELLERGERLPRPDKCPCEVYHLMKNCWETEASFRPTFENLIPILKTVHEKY", "experiment": "JH1 biochemical assay for TYK2 (ADP-Glo kinase assay, recombinant JH1 catalytic domain, JAK3-974 peptide, 10 μM ATP)", "how_it_was_run": "as §1"}, "[6]": {"target": "Tyk2 kinase activity on STAT4 in NK92 cells (Homo sapiens, UniProt P29597)", "sequence (P29597 whole entry)": "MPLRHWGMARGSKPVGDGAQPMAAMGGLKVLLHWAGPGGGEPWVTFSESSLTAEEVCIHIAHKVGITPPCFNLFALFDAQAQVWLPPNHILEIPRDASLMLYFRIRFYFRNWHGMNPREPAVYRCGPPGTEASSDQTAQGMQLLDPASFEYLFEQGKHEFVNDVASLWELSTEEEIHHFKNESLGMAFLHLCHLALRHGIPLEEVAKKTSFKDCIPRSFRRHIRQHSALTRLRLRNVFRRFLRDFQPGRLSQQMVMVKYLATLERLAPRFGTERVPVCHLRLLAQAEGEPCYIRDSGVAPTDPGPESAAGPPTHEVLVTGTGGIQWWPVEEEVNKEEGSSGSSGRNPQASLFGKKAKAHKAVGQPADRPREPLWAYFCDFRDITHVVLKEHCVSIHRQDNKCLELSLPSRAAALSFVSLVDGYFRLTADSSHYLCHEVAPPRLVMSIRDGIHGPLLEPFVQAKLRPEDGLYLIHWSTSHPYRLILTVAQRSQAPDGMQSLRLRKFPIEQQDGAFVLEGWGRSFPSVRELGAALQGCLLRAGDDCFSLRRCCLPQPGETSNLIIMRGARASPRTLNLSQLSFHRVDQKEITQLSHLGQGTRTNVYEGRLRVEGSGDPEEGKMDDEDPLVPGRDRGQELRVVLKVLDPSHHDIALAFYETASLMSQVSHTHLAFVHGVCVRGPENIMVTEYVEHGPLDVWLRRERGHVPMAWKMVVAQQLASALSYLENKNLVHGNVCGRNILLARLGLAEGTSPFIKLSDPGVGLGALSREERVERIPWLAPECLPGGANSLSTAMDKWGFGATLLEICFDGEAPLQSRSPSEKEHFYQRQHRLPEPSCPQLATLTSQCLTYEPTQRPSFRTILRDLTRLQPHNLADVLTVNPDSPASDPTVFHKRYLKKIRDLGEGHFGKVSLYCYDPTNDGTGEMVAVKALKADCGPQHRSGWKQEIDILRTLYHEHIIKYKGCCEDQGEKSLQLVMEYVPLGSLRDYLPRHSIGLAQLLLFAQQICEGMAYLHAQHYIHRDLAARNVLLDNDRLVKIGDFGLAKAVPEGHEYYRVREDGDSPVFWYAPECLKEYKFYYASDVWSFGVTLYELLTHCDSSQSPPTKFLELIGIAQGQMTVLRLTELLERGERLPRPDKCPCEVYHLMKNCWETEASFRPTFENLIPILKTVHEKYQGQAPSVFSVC", "experiment": "pSTAT4 cell assay (MSD; NK92 cells, 30 ng/mL IL2 stimulation)", "assay_type": "cell-based", "settings": "30 ng/mL IL2, 15 minutes", "how_it_was_run": "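IC50 values derive from 4-parameter logistic fits of normalized percent activity against log compound concentration. Phospho-STAT was measured by MSD with anti-STAT4 antibodies after 15 min of 30 ng/mL IL2 in serum-starved NK92 cells pretreated 1 hr with compound.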"}, "[7]": {"target": "JAK2 kinase activity on STAT5 in TF1 cells (Homo sapiens, UniProt O60674)", "sequence (O60674 whole entry)": "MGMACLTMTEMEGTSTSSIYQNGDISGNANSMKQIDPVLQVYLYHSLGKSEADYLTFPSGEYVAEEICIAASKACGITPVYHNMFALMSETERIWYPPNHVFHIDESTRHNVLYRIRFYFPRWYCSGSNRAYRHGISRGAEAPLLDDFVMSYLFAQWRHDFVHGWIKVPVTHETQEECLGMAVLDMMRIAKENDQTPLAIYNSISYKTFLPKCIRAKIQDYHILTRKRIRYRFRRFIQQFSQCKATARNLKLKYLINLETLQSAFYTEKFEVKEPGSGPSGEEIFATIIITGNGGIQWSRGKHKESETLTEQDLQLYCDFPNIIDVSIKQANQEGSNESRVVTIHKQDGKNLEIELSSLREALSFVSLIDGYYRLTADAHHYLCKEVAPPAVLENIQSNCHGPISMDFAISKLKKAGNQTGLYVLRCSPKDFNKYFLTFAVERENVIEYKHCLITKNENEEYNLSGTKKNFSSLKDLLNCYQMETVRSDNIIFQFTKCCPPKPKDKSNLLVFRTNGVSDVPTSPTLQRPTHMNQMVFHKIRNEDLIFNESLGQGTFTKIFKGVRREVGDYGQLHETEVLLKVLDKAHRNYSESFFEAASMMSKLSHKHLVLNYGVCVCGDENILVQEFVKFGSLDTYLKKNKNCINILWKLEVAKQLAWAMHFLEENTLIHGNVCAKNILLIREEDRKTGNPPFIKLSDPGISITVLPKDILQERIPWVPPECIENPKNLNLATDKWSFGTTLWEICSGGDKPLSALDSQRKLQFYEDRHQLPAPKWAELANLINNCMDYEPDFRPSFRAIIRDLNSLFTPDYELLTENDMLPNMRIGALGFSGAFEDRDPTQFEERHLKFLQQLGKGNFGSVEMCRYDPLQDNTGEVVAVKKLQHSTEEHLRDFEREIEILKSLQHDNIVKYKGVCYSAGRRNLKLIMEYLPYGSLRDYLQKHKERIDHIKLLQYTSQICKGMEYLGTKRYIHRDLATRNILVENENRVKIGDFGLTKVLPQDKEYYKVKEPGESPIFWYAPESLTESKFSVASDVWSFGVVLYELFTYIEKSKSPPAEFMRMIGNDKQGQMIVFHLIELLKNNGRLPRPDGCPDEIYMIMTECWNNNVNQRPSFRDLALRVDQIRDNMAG", "experiment": "pSTAT5 cell assay (MSD; TF1 cells, 30 ng/mL IL-3 stimulation)", "assay_type": "cell-based", "settings": "30 ng/mL IL-3, 15 minutes", "how_it_was_run": "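Serum-starved TF1 cells with native JAK2/STAT5 were pretreated 1 h with compound (10-point four-fold dilutions from 10 μM), then stimulated 15 min with 30 ng/mL IL-3. pSTAT5 in lysates quantified by MSD immunoassay; normalized percent activity fitted to a 4-parameter logistic curve for IC50.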"}}, "note": "pIC50: −log10 of the molar value.", "data": [{"smiles": "C[C@@H]1CN(c2ccnn3cc(-n4cccn4)cc23)C(=O)[C@]1(C#N)C1CC1", "note": "[Example 335, (3R,4S)-1-(6-(1H-pyrazol-1-yl)pyrrolo[1,2-b]pyridazin-4-yl)-3-cyclopropyl-4-methyl-2-oxopyrrolidine-3-carbonitrile]", "values": [{"measurement": "pIC50", "setting": "[1]; JAK3 JH1, ADP-Glo", "value": "6.00 to 7.00"}, {"measurement": "pIC50", "setting": "[2]; JAK1 JH1, ADP-Glo", "value": "6.00 to 7.00"}, {"measurement": "pIC50", "setting": "[3]; JAK2 JH1, ADP-Glo", "value": "5.30 to 6.00"}, {"measurement": "pIC50", "setting": "[4]", "value": "< 5.00"}, {"measurement": "pIC50", "setting": "[5]; TYK2 JH1, ADP-Glo", "value": "7.30 to 7.70"}, {"measurement": "pIC50", "setting": "[6]", "value": "< 7.00"}, {"measurement": "pIC50", "setting": "[7]", "value": "< 5.00"}]}, {"smiles": "C[C@@H]1CN(c2ccnn3cc(-c4cnn(C5CCN(C)C5)c4)cc23)C(=O)[C@]1(C#N)C1CC1", "note": "(stereo partly drawn) [Example 332, (3R,4S)-3-cyclopropyl-4-methyl-1-(6-(1-(1-methylpyrrolidin-3-yl)-1H-pyrazol-4-yl)pyrrolo[1,2-b]pyridazin-4-yl)-2-oxopyrrolidine-3-carbonitrile]", "values": [{"measurement": "pIC50", "setting": "[1]; JAK3 JH1, ADP-Glo", "value": "> 7.00"}, {"measurement": "pIC50", "setting": "[2]; JAK1 JH1, ADP-Glo", "value": "6.00 to 7.00"}, {"measurement": "pIC50", "setting": "[3]; JAK2 JH1, ADP-Glo", "value": "6.00 to 7.00"}, {"measurement": "pIC50", "setting": "[4]", "value": "5.30 to 6.00"}, {"measurement": "pIC50", "setting": "[5]; TYK2 JH1, ADP-Glo", "value": "> 8.30"}, {"measurement": "pIC50", "setting": "[6]", "value": "7.00 to 7.30"}, {"measurement": "pIC50", "setting": "[7]", "value": "5.30 to 6.00"}]}, {"smiles": "CC[C@@H]1CN(c2ccnn3cc(-c4cnn(C)c4)cc23)C(=O)[C@]1(C#N)C1CC1", "note": "[Example 23, (3R,4S)-3-cyclopropyl-4-ethyl-1-(6-(1-methyl-1H-pyrazol-4-yl)pyrrolo[1,2-b]pyridazin-4-yl)-2-oxopyrrolidine-3-carbonitrile]", "values": [{"measurement": "pIC50", "setting": "[1]; JH1 kinase domain, ADP-Glo", "value": "6.00 to 7.00"}, {"measurement": "pIC50", "setting": "[2]; JH1 kinase domain, ADP-Glo", "value": "6.00 to 7.00"}, {"measurement": "pIC50", "setting": "[3]; JH1 kinase domain, ADP-Glo", "value": "6.00 to 7.00"}, {"measurement": "pIC50", "setting": "[4]", "value": "5.30 to 6.00"}, {"measurement": "pIC50", "setting": "[5]; JH1 kinase domain, ADP-Glo", "value": "7.70 to 8.30"}, {"measurement": "pIC50", "setting": "[6]", "value": "7.00 to 7.30"}, {"measurement": "pIC50", "setting": "[7]", "value": "5.00 to 5.30"}]}, {"smiles": "C[C@@H]1CN(c2cc(-c3cnn(C(F)F)c3)cc3ncsc23)C(=O)[C@]1(C#N)C1CC1", "note": "[Example 349, (3R,4S)-3-cyclopropyl-1-(5-(1-(difluoromethyl)-1H-pyrazol-4-yl)benzo[d]thiazol-7-yl)-4-methyl-2-oxopyrrolidine-3-carbonitrile]", "values": [{"measurement": "pIC50", "setting": "[1]; JAK3 JH1, ADP-Glo", "value": "> 7.00"}, {"measurement": "pIC50", "setting": "[2]; JAK1 JH1, ADP-Glo", "value": "> 7.00"}, {"measurement": "pIC50", "setting": "[3]; JAK2 JH1, ADP-Glo", "value": "6.00 to 7.00"}, {"measurement": "pIC50", "setting": "[4]", "value": "6.00 to 7.00"}, {"measurement": "pIC50", "setting": "[5]; TYK2 JH1, ADP-Glo", "value": "> 8.30"}, {"measurement": "pIC50", "setting": "[6]", "value": "< 7.00"}, {"measurement": "pIC50", "setting": "[7]", "value": "5.30 to 6.00"}]}, {"smiles": "COc1cc(-c2cc3c(N4CC[C@@](C#N)(C5CC5)C4=O)ccnn3c2)ccn1", "note": "[Example 8, (S)-3-cyclopropyl-1-(6-(2-methoxypyridin-4-yl)pyrrolo[1,2-b]pyridazin-4-yl)-2-oxopyrrolidine-3-carbonitrile]", "values": [{"measurement": "pIC50", "setting": "[1]; JH1 kinase domain, ADP-Glo", "value": "6.00 to 7.00"}, {"measurement": "pIC50", "setting": "[2]; JH1 kinase domain, ADP-Glo", "value": "6.00 to 7.00"}, {"measurement": "pIC50", "setting": "[3]; JH1 kinase domain, ADP-Glo", "value": "6.00 to 7.00"}, {"measurement": "pIC50", "setting": "[4]", "value": "5.30 to 6.00"}, {"measurement": "pIC50", "setting": "[5]; JH1 kinase domain, ADP-Glo", "value": "7.70 to 8.30"}, {"measurement": "pIC50", "setting": "[6]", "value": "< 7.00"}, {"measurement": "pIC50", "setting": "[7]", "value": "5.30 to 6.00"}]}, {"smiles": "C[C@@H]1CN(c2ccnn3cc(-c4cncc(F)c4)cc23)C(=O)[C@]1(C#N)C1CC1", "note": "[Example 84, (3R,4S)-3-cyclopropyl-1-(6-(5-fluoropyridin-3-yl)pyrrolo[1,2-b]pyridazin-4-yl)-4-methyl-2-oxopyrrolidine-3-carbonitrile]", "values": [{"measurement": "pIC50", "setting": "[1]; JH1 kinase domain, ADP-Glo", "value": "6.00 to 7.00"}, {"measurement": "pIC50", "setting": "[2]; JH1 kinase domain, ADP-Glo", "value": "6.00 to 7.00"}, {"measurement": "pIC50", "setting": "[3]; JH1 kinase domain, ADP-Glo", "value": "5.30 to 6.00"}, {"measurement": "pIC50", "setting": "[4]", "value": "5.00 to 5.30"}, {"measurement": "pIC50", "setting": "[5]; JH1 kinase domain, ADP-Glo", "value": "7.70 to 8.30"}, {"measurement": "pIC50", "setting": "[6]", "value": "< 7.00"}, {"measurement": "pIC50", "setting": "[7]", "value": "< 5.00"}]}, {"smiles": "C[C@@H]1CN(c2ccnn3cc(-c4ccc(OC(F)F)nc4)cc23)C(=O)[C@]1(C#N)C1CC1", "note": "[Example 176, (3R,4S)-3-cyclopropyl-1-(6-(6-(difluoromethoxy)pyridin-3-yl)pyrrolo[1,2-b]pyridazin-4-yl)-4-methyl-2-oxopyrrolidine-3-carbonitrile]", "values": [{"measurement": "pIC50", "setting": "[1]; JH1 kinase domain, ADP-Glo", "value": "6.00 to 7.00"}, {"measurement": "pIC50", "setting": "[2]; JH1 kinase domain, ADP-Glo", "value": "6.00 to 7.00"}, {"measurement": "pIC50", "setting": "[3]; JH1 kinase domain, ADP-Glo", "value": "5.30 to 6.00"}, {"measurement": "pIC50", "setting": "[4]", "value": "5.00 to 5.30"}, {"measurement": "pIC50", "setting": "[5]; JH1 kinase domain, ADP-Glo", "value": "7.70 to 8.30"}, {"measurement": "pIC50", "setting": "[6]", "value": "< 7.00"}, {"measurement": "pIC50", "setting": "[7]", "value": "< 5.00"}]}, {"smiles": "[2H]C([2H])([2H])n1cc(-c2cn3nccc3c(N3C[C@@H](C)[C@@](C#N)(C4CC4)C3=O)n2)cn1", "note": "[Example 201, (3R,4S)-3-cyclopropyl-4-methyl-1-(6-(1-(methyl-d3)-1H-pyrazol-4-yl)pyrazolo[1,5-a]pyrazin-4-yl)-2-oxopyrrolidine-3-carbonitrile]", "values": [{"measurement": "pIC50", "setting": "[1]; JH1 kinase domain, ADP-Glo", "value": "> 7.00"}, {"measurement": "pIC50", "setting": "[2]; JH1 kinase domain, ADP-Glo", "value": "> 7.00"}, {"measurement": "pIC50", "setting": "[3]; JH1 kinase domain, ADP-Glo", "value": "> 7.00"}, {"measurement": "pIC50", "setting": "[4]", "value": "6.00 to 7.00"}, {"measurement": "pIC50", "setting": "[5]; JH1 kinase domain, ADP-Glo", "value": "> 8.30"}, {"measurement": "pIC50", "setting": "[6]", "value": "7.30 to 7.70"}, {"measurement": "pIC50", "setting": "[7]", "value": "6.00 to 7.00"}]}]}
